Data from patent US20140275060A1, “COMPOUNDS FOR THE TREATMENT OF NEUROLOGIC DISORDERS” (priority 2013, published 2014).

Biological target: GluN1/GluN2B Receptors (Rattus norvegicus, UniProt P35439+Q00960)
Assay: Two-electrode voltage-clamp IC50 determination at GluN1/GluN2B receptors expressed in Xenopus oocytes
Format: cell-based, Human or Rat
Experimental: Determination of IC50 Values of GluN1/GluN2B Receptors Expressed in Xenopus oocytes in Human or Rat Stage V and VI oocytes were surgically removed from the ovaries of large, well-fed and healthy Xenopus laevis anesthetized with 3-amino-benzoic acid ethyl ester (3 gm/l). Oocytes were injected within 24 hrs of isolation with 3-5 ng of GluN1 subunit cRNA and 7-10 ng of GluN2 cRNA subunit in a 50 nl volume, and incubated in Barth's solution at 18° C. for 2-7 d. Glass injection pipettes had tip sizes ranging from 10-20 microns, and were backfilled with mineral oil. Two electrode voltage-clamp recordings were made 2-7 days post-injection. Oocytes were placed in a dual-track plexiglass recording chamber and dual recordings were made at room temperature (23° C.) using two Warner OC725C two-electrode voltage clamp amplifiers, arranged as recommended by the manufacturer. Glass microelectrodes (1-10 Megaohms) were filled with 300 mM KCl (voltage electrode) or 3 M KCl (current electrode). The bath clamps communicated across silver chloride wires placed into each side of the recording chamber, both were assumed to be at a reference potential of 0 mV. Oocytes were perfused with a solution comprised of (in mM) 90 NaCl, 1 KCl, 10 HEPES, 10 EDTA and 0.5 BaCl2; pH was adjusted by addition of 1-3 M NaOH or HCl. Oocytes were recorded under voltage clamp at −40 mV. Final concentrations for glutamate and glycine were 50 μM and 30 μM, respectively. Concentration-response curves for experimental compounds were obtained by applying maximal glutamate/glycine, followed by glutamate/glycine plus variable concentrations of experimental compounds. Dose response curves consisting of 4 to 6 concentrations were obtained in this manner. The baseline leak current at −40 mV was measured before and after recording, and the full recording linearly corrected for any change in leak current. The level of inhibition by applied experimental compounds measured after a 6 min exposure to a compound was expressed as a percent of the initial glutamate response, and averaged together across oocytes from multiple experiments. Results were pooled, and the average percent responses at antagonist concentrations were fit by the equation, Percent Response=(100−minimum)/(1+([conc]/IC50)^nH)+minimum where minimum is the residual percent response in saturating concentration of the experimental compounds, IC50 is the concentration of antagonist that causes half of the achievable inhibition, and nH is a slope factor describing steepness of the inhibition curve. Minimum was constrained to be between zero and 20. Recordings were made at pH 6.9, pH 7.4, and pH 7.6.

GluN1/GluN2B Receptors, sequence (Q00960 27-1482, other chains not shown): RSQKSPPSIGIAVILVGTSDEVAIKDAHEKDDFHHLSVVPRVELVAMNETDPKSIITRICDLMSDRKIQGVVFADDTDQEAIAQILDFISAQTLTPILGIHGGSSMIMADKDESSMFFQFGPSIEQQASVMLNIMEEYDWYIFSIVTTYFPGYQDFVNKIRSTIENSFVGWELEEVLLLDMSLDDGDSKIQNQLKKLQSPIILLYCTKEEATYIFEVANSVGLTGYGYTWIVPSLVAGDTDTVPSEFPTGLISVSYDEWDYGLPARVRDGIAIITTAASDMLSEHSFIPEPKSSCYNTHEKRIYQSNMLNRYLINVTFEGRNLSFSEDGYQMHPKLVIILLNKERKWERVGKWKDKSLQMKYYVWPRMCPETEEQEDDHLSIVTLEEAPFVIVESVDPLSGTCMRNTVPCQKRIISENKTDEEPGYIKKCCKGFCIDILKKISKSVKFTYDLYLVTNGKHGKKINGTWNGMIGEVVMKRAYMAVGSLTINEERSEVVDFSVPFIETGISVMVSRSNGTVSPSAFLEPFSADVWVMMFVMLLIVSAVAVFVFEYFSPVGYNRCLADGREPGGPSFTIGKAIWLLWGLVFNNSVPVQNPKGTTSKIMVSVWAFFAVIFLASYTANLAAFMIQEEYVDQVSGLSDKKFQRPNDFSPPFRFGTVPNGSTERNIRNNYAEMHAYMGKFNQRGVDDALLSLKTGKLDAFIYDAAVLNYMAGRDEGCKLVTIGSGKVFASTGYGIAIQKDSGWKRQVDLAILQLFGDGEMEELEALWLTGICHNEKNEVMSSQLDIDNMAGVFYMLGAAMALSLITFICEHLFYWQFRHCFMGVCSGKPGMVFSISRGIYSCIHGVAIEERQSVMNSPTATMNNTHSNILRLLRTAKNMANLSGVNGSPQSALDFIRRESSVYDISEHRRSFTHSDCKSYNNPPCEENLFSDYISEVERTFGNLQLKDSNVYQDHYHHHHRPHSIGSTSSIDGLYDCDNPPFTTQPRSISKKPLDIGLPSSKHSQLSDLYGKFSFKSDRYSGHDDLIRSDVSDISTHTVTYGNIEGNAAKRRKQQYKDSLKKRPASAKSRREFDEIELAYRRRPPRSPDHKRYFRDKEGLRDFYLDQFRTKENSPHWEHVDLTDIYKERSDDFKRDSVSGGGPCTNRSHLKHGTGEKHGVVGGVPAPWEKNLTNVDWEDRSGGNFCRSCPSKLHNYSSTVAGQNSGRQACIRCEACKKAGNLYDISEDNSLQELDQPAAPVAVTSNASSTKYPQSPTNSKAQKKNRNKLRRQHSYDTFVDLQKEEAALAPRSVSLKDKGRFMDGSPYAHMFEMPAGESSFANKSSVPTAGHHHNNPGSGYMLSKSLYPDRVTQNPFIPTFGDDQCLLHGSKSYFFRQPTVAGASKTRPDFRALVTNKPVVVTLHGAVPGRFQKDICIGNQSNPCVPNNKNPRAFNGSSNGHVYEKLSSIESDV

Row | SMILES | nH (slope factor of the inhibition curve) (pH 6.9) | nH (slope factor of the inhibition curve) (pH 7.6)
1 | CCCc1ccc(N2CCN(CC(O)C=Cc3ccc4[nH]c(=O)ccc4c3)CC2)cc1 (racemic) [Compound 10, (rac-)(E)-6-(3-hydroxy-4-(4-(4-propylphenyl)piperazin-1-yl)but-1-en-1-yl)quinolin-2(1H)-one] | −0.90 | −1.24
2 | O=C1CCc2cc(/C=C/C(O)CN3CCN(c4ccc(Cl)cc4)CC3)ccc2N1 (racemic) [Compound 21, (rac)-(E)-6-(4-(4-(4-Chlorophenyl)piperazin-1-yl)-3-hydroxybut-1-en-1-yl)-3,4-dihydroquinolin-2(1H)-one] | −0.81 | −1.28
3 | O=C1CCc2cc(/C=C/C(CO)N3CCN(c4ccc(Cl)cc4)CC3)ccc2N1 (racemic) [Compound 23, (rac)-(E)-6-(3-(4-(4-chlorophenyl)piperazin-1-yl)-4-hydroxybut-1-en-1-yl)-3,4-dihydroquinolin-2(1H)-one] | −1.09 | −0.60
4 | CCCc1ccc(N2CCN(C[C@@H](O)/C=C/c3ccc4[nH]c(=O)ccc4c3)CC2)cc1 [Compound 11, (S,E)-6-(3-hydroxy-4-(4-(4-propylphenyl)piperazin-1-yl)but-1-en-1-yl)quinolin-2(1H)-one] | −0.87 | −0.52
5 | O=c1ccc2cc(/C=C/[C@H](O)CN3CCN(c4ccc(C5CC5)cc4)CC3)ccc2[nH]1 [Compound 13, (S,E)-6-(4-(4-(4-cyclopropylphenyl)piperazin-1-yl)-3-hydroxybut-1-en-1-yl)quinolin-2(1H)-one] | −0.81 | −0.80
6 | O=C1COc2cc(/C=C/[C@@H](O)CN3CCN(c4ccc(C(F)(F)F)cc4)CC3)ccc2N1 [Compound 15, (R,E)-7-(3-hydroxy-4-(4-(4-(trifluoromethyl)phenyl)piperazin-1-yl)but-1-en-1-yl)-2H-benzo[b][1,4]oxazin-3(4H)-one] | −0.88 | −1.04
7 | O=C1COc2cc(/C=C/[C@H](O)CN3CCN(c4ccc(C(F)(F)F)cc4)CC3)ccc2N1 [Compound 16, (S,E)-7-(3-hydroxy-4-(4-(4-(trifluoromethyl)phenyl)piperazin-1-yl)but-1-en-1-yl)-2H-benzo[b][1,4]oxazin-3(4H)-one] | −0.67 | −1.29
8 | O=C1NCc2cc(/C=C/[C@@H](O)CN3CCN(c4ccc(C5CC5)cc4)CC3)ccc2N1 [Compound 18, (R,E)-6-(4-(4-(4-cyclopropylphenyl)piperazin-1-yl)-3-hydroxybut-1-en-1-yl)-3,4-dihydroquinazolin-2(1H)-one] | −0.78 | −1.28
9 | CC(C)c1ccc(N2CCN(C[C@@H](O)/C=C/c3ccc4c(c3)CCC(=O)N4)CC2)cc1 [Compound 25, (S,E)-6-(3-Hydroxy-4-(4-(4-isopropylphenyl)piperazin-1-yl)but-1-en-1-yl)-3,4-dihydroquinolin-2(1H)-one] | −0.61 | −1.22
10 | O=C1CCc2cc(/C=C/[C@H](O)CN3CCN(c4ccc(Cl)cc4)CC3)ccc2N1 [Compound 27, (S,E)-6-(4-(4-(4-Chlorophenyl)piperazin-1-yl)-3-hydroxybut-1-en-1-yl)-3,4-dihydro-quinolin-2(1H)-one] | −0.95 | −0.64
11 | CC(C)c1ccc(N2CCN(C[C@H](O)/C=C/c3ccc4c(c3)CCC(=O)N4)CC2)cc1 [Compound 29, (R,E)-6-(3-Hydroxy-4-(4-(4-isopropylphenyl)piperazin-1-yl)but-1-en-1-yl)-3,4-dihydroquinolin-2(1H)-one] | −0.54 | −1.31
12 | O=C1CCc2cc(/C=C/[C@@H](O)CN3CCN(c4ccc(Cl)cc4)CC3)ccc2N1 [Compound 31, (R,E)-6-(4-(4-(4-Chlorophenyl)piperazin-1-yl)-3-hydroxybut-1-en-1-yl)-3,4-dihydroquinolin-2(1H)-one] | −0.64 | −0.90
13 | O=C1CCc2cc(/C=C/[C@H](O)CN3CCN(c4ccc(C(F)(F)F)cc4)CC3)ccc2N1 [Compound 33, (S,E)-6-(3-Hydroxy-4-(4-(4-(trifluoromethyl)phenyl)piperazin-1-yl)but-1-en-1-yl)-3,4-dihydroquinolin-2(1H)-one] | −0.56 | −0.65
14 | O=C1CCc2cc(/C=C/[C@@H](O)CN3CCN(c4ccc(C(F)(F)F)cc4)CC3)ccc2N1 [Compound 35, (R,E)-6-(3-Hydroxy-4-(4-(4-(trifluoromethyl)phenyl)piperazin-1-yl)but-1-en-1-yl)-3,4-dihydroquinolin-2(1H)-one] | −0.68 | −0.75
15 | CC(C)c1ccc(N2CCN(C[C@@H](O)/C=C/c3ccc(NC(N)=O)cc3)CC2)cc1 [Compound 36, (S,E)-1-(4-(3-Hydroxy-4-(4-(4-isopropylphenyl)piperazin-1-yl)but-1-en-1-yl)phenyl)urea] | −0.82 | −1.05
16 | NC(=O)Nc1ccc(/C=C/[C@@H](O)CN2CCN(c3ccc(C(F)(F)F)cc3)CC2)cc1 [Compound 38, (R,E)-1-(4-(3-Hydroxy-4-(4-(4-(trifluoromethyl)phenyl)piperazin-1-yl)but-1-en-1-yl)phenyl)urea] | −0.64 | −0.69
17 | NC(=O)Nc1ccc(/C=C/[C@H](O)CN2CCN(c3ccc(C(F)(F)F)cc3)CC2)cc1 [Compound 39, (S,E)-1-(4-(3-Hydroxy-4-(4-(4-(trifluoromethyl)phenyl)piperazin-1-yl)but-1-en-1-yl)phenyl)urea] | −0.43 | −0.69
18 | O=C1NCc2cc(/C=C/[C@@H](O)CN3CCN(c4ccc(C(F)(F)F)cc4)CC3)ccc2N1 [Compound 41, (R,E)-6-(3-hydroxy-4-(4-(4-(trifluoromethyl)phenyl)piperazin-1-yl)but-1-en-1-yl)-3,4-dihydroquinazolin-2(1H)-one] | −0.64 | −1.04
19 | O=C1CCc2cc(/C=C/[C@@H](CO)N3CCN(c4ccc(C(F)(F)F)cc4)CC3)ccc2N1 [Compound 43, (S,E)-6-(4-Hydroxy-3-(4-(4-(trifluoromethyl)phenyl)piperazin-1-yl)but-1-en-1-yl)-3,4-dihydroquinolin-2(1H)-one] | −0.67 | −1.09
20 | O=C1CCc2cc(/C=C/[C@@H](O)CN3CCN(c4ccc(C(F)(F)F)cn4)CC3)ccc2N1 [Compound 45, (R,E)-6-(3-Hydroxy-4-(4-(5-(trifluoromethyl)pyridin-2-yl)piperazin-1-yl)but-1-en-1-yl)-3,4-dihydroquinolin-2(1H)-one] | −0.80 | −0.80
